# “And” between values parts separate entries of the source, which are not always exact repeats. Equal entries are not always repeated.
# Assays:
# [1] = tested on: four non-smoking volunteers (2 men and 2 women); assay: Taste identification questionnaire, trained panel (count of 6 repetitions per subject in which the stimulus was given each taste label; level of recognition %); format: in vivo, human
# Method: (§1) In this test, four non-smoking volunteers (2 men and 2 women) were chosen from 12 people for their performance in taste recognition. Their mean age was 32 years, ranging from 24 to 40 years. […] These four people were trained for several months to recognize and detect the four basic tastes, and also regarding the procedures of sensory and physiological analysis.
# (§2) The four basic tastes (sweet, salty, sour and bitter) were used. The solutions were prepared with citric acid for the sour taste, caffeine for the bitter taste, sodium chloride for the salty taste and sucrose for the sweet taste (all purchased from Sigma Aldrich, France) in Evian water. Evian water was also used as control and blank. Each taste was prepared with the four concentrations mentioned in table 1.
# (§3) The amount of solution to be tested was standardized at 10 ml. In order to impregnate the whole of the oral cavity, the subjects kept the solution in their mouth for 5 s before swallowing it.
# (§4) The sessions were individual and the subjects were asked not to eat or drink anything for at least 1 h before the test. They arrived 15 min before the start of the session in order to acclimatize to the environmental conditions, in particular the temperature of the room (kept constant at 23° C.) and to be resting seated on a comfortable chair. The 16 solutions for testing and two additional samples of water containing solely Evian water, added to the references, were presented monadically following a test order determined from a “balanced incomplete block design”. During a session, 9 samples out of 18 were presented to minimize sensory fatigue. In addition, a sample of Evian was always tested as a “blank” sample in order to avoid the first-order effect (Lawless, H. T. & Heymann, H., 2010, Sensory evaluation of food: Principles and practices. Springer, New York) and was excluded from the analysis. A light signal was sent to give the instruction to test the sample. When the disturbance to the nervous system returned to its baseline level (after approximately 1 min), a second light signal indicated to the subjects that they should complete a questionnaire regarding the stimulus tested previously. The first part of the questionnaire was linked to the identification of the taste (i.e. determining the quality of the taste); the subjects had to choose between five labels: sweet, salty, sour, bitter or neutral. They then had to assign a taste intensity score on an 11-point scale (from 0 “not intense” (i.e. taste of Evian only) to 10 “very intense”) and finally to give a hedonic score on an 11-point scale (from 0 “very unpleasant” to 10 “very pleasant”, 5 being “neutral”).
# (§5) This procedure was repeated for each of the 9 stimuli. A session lasted approximately 45 min including a debriefing at the end of the test to ensure understanding of the sense of the signal variations. The experiment was repeated 12 times per subject, meaning that the data are composed of 6 data sets per subject and per product and 12 data sets for the Evian product per subject. Thus, the database consists of 432 samples.
# subject 3 = assay: Skin blood microcirculation (SKBF) response to taste stimuli, PCA sensory space (ESRP); format: in vivo, human; conditions: concentration 3
# Description: A Periflux PF 5010 (Perimed AB, Sweden) system was chosen, which enables non-invasive monitoring of blood perfusion in the capillaries, arterioles and venules.
# The unit of blood perfusion is arbitrary and corresponds to the product of the mean rate of displacement of the red blood cells by their concentration. The system Periflux PF 5010 has a 780 nm, 1 mm diameter laser beam without thermal effect. An optical fiber probe PR407 is used. The low-energy laser beam is transmitted by the probe to the tissue. A portion of the light reflects off the static structures and another portion of the light reflects off the moving blood cells. When the light reflects off a moving cell, the wavelength is modified, which corresponds to the Doppler effect. The scattered light collected by the optical fiber is used to calculate the perfusion value. The measurement is expressed in perfusion units (PU). Recording was carried out on the pad of the index finger of the non-dominant hand, due to the high level of vascularization of this zone. The perfusion signals were recorded by an 8-channel PowerLab PL35088/35 acquisition system; the data were collected at a frequency of 1 kHz and analyzed by the LabChart® software (AD instruments Ltd, United Kingdom).
# . Then, the peak was analyzed manually by selecting the whole of the peak and analyzing it with the LabChart® software (FIG. 1).
# Several shape parameters were extracted from the signal (i.e. amplitude, duration, gradient). […]
# The SKBF responses were analyzed individually by one-way ANOVA (product effect), the subjects having their own “preferential channel” (Lacey, J. I., Bateman, D. E. & VanLEHN, R., 1953, Autonomic response specificity: An experimental study. Psychosomatic Medicine, 15, 8-21). […]
# [2] = tested on: four non-smoking volunteers (2 men and 2 women); assay: Hedonic score, 11-point scale (0 very unpleasant to 10 very pleasant, 5 neutral); format: in vivo, human
# Method: as §1, §2, §3, §4, §5
# (§6) The effect of the taste on the hedonic and intensity scores was analyzed by an analysis of variance (ANOVA) including the product effect, the subject effect and the product-subject interaction. The subject effect was fixed because there were only 4 subjects and the results could only be applied to a particular schema. The differences were considered to be significant at a level of 0.05.
# [3] = cited from earlier work; for detection threshold: representative compound of a primary taste
# [4] = tested on: four non-smoking volunteers (2 men and 2 women); assay: Taste intensity score, 11-point scale (0 not intense to 10 very intense); format: in vivo, human; conditions: concentration 4; averaged over 4 subjects, 6 repetitions each
# Method: as §1, §2, §3, §4, §5, §6
smiles,measurement,setting,value
"Cn1c(=O)c2c(ncn2C)n(C)c1=O [Caffeine, caffeine]",Individual recognition score: Bitter,"[1]; human, in vivo",6 (9×) and 4 (2×) and 5 (4×) and 3
same,Individual recognition score: Neutral,"[1]; human, in vivo",0 (11×) and 1 (3×) and 3 and 2
same,Individual recognition score: Salty,"[1]; human, in vivo",0
same,Individual recognition score: Sour,"[1]; human, in vivo",0 (14×) and 1 (2×)
same,Individual recognition score: Sweet,"[1]; human, in vivo",0 (15×) and 1
same,Level of Recognition %: Bitter,"[1]; human, in vivo",83% and 84%
same,Level of Recognition %: Salty,"[1]; human, in vivo",0%
same,Level of Recognition %: Sour,"[1]; human, in vivo",0% and 4%
same,Level of Recognition %: Sweet,"[1]; human, in vivo",0% and 4%
same,"SKBF disturbance (signal width, area of the peak; ANOVA)",subject 3,significantly stronger disturbance than the others
same,hedonic score,[2]; concentration 3,3.5±1.8
same,hedonic score,[2]; concentration 4 (highest),3.5±2.3
same,detection threshold,[3],0.05 to 0.35 g/L
"OC[C@H]1O[C@@](CO)(O[C@H]2O[C@H](CO)[C@@H](O)[C@H](O)[C@H]2O)[C@@H](O)[C@@H]1O [Sucrose, sucrose]",Individual recognition score: Bitter,"[1]; Subject 1, dilution 1",0
same,Individual recognition score: Neutral,"[1]; Subject 1, dilution 1",0
same,Individual recognition score: Salty,"[1]; Subject 1, dilution 1",0
same,Individual recognition score: Sour,"[1]; Subject 1, dilution 1",0
same,Individual recognition score: Sweet,"[1]; Subject 1, dilution 1",6
same,Individual recognition score: Bitter,"[1]; Subject 1, dilution 2",0
same,Individual recognition score: Neutral,"[1]; Subject 1, dilution 2",0
same,Individual recognition score: Salty,"[1]; Subject 1, dilution 2",0
same,Individual recognition score: Sour,"[1]; Subject 1, dilution 2",0
same,Individual recognition score: Sweet,"[1]; Subject 1, dilution 2",6
same,Individual recognition score: Bitter,"[1]; Subject 1, dilution 3",0
same,Individual recognition score: Neutral,"[1]; Subject 1, dilution 3",0
same,Individual recognition score: Salty,"[1]; Subject 1, dilution 3",0
same,Individual recognition score: Sour,"[1]; Subject 1, dilution 3",0
same,Individual recognition score: Sweet,"[1]; Subject 1, dilution 3",6
same,Individual recognition score: Bitter,"[1]; Subject 1, dilution 4",0
same,Individual recognition score: Neutral,"[1]; Subject 1, dilution 4",0
same,Individual recognition score: Salty,"[1]; Subject 1, dilution 4",0
same,Individual recognition score: Sour,"[1]; Subject 1, dilution 4",0
same,Individual recognition score: Sweet,"[1]; Subject 1, dilution 4",6
same,Individual recognition score: Bitter,"[1]; Subject 2, dilution 1",0
same,Individual recognition score: Neutral,"[1]; Subject 2, dilution 1",0
same,Individual recognition score: Salty,"[1]; Subject 2, dilution 1",0
same,Individual recognition score: Sour,"[1]; Subject 2, dilution 1",0
same,Individual recognition score: Sweet,"[1]; Subject 2, dilution 1",6
same,Individual recognition score: Bitter,"[1]; Subject 2, dilution 2",0
same,Individual recognition score: Neutral,"[1]; Subject 2, dilution 2",0
same,Individual recognition score: Salty,"[1]; Subject 2, dilution 2",0
same,Individual recognition score: Sour,"[1]; Subject 2, dilution 2",0
same,Individual recognition score: Sweet,"[1]; Subject 2, dilution 2",6
same,Individual recognition score: Bitter,"[1]; Subject 2, dilution 3",0
same,Individual recognition score: Neutral,"[1]; Subject 2, dilution 3",0
same,Individual recognition score: Salty,"[1]; Subject 2, dilution 3",0
same,Individual recognition score: Sour,"[1]; Subject 2, dilution 3",0
same,Individual recognition score: Sweet,"[1]; Subject 2, dilution 3",6
same,Individual recognition score: Bitter,"[1]; Subject 2, dilution 4",0
same,Individual recognition score: Neutral,"[1]; Subject 2, dilution 4",0
same,Individual recognition score: Salty,"[1]; Subject 2, dilution 4",0
same,Individual recognition score: Sour,"[1]; Subject 2, dilution 4",0
same,Individual recognition score: Sweet,"[1]; Subject 2, dilution 4",6
same,Individual recognition score: Bitter,"[1]; Subject 3, dilution 1",0
same,Individual recognition score: Neutral,"[1]; Subject 3, dilution 1",3
same,Individual recognition score: Salty,"[1]; Subject 3, dilution 1",0
same,Individual recognition score: Sour,"[1]; Subject 3, dilution 1",0
same,Individual recognition score: Sweet,"[1]; Subject 3, dilution 1",3
same,Individual recognition score: Bitter,"[1]; Subject 3, dilution 2",0
same,Individual recognition score: Neutral,"[1]; Subject 3, dilution 2",0
same,Individual recognition score: Salty,"[1]; Subject 3, dilution 2",0
same,Individual recognition score: Sour,"[1]; Subject 3, dilution 2",0
same,Individual recognition score: Sweet,"[1]; Subject 3, dilution 2",6
same,Individual recognition score: Bitter,"[1]; Subject 3, dilution 3",0
same,Individual recognition score: Neutral,"[1]; Subject 3, dilution 3",0
same,Individual recognition score: Salty,"[1]; Subject 3, dilution 3",0
same,Individual recognition score: Sour,"[1]; Subject 3, dilution 3",0
same,Individual recognition score: Sweet,"[1]; Subject 3, dilution 3",6
same,Individual recognition score: Bitter,"[1]; Subject 3, dilution 4",0
same,Individual recognition score: Neutral,"[1]; Subject 3, dilution 4",0
same,Individual recognition score: Salty,"[1]; Subject 3, dilution 4",0
same,Individual recognition score: Sour,"[1]; Subject 3, dilution 4",0
same,Individual recognition score: Sweet,"[1]; Subject 3, dilution 4",6
same,Individual recognition score: Bitter,"[1]; Subject 4, dilution 1",0
same,Individual recognition score: Neutral,"[1]; Subject 4, dilution 1",0
same,Individual recognition score: Salty,"[1]; Subject 4, dilution 1",0
same,Individual recognition score: Sour,"[1]; Subject 4, dilution 1",0
same,Individual recognition score: Sweet,"[1]; Subject 4, dilution 1",6
same,Individual recognition score: Bitter,"[1]; Subject 4, dilution 2",0
same,Individual recognition score: Neutral,"[1]; Subject 4, dilution 2",0
same,Individual recognition score: Salty,"[1]; Subject 4, dilution 2",0
same,Individual recognition score: Sour,"[1]; Subject 4, dilution 2",0
same,Individual recognition score: Sweet,"[1]; Subject 4, dilution 2",6
same,Individual recognition score: Bitter,"[1]; Subject 4, dilution 3",0
same,Individual recognition score: Neutral,"[1]; Subject 4, dilution 3",0
same,Individual recognition score: Salty,"[1]; Subject 4, dilution 3",0
same,Individual recognition score: Sour,"[1]; Subject 4, dilution 3",0
same,Individual recognition score: Sweet,"[1]; Subject 4, dilution 3",6
same,Individual recognition score: Bitter,"[1]; Subject 4, dilution 4",0
same,Individual recognition score: Neutral,"[1]; Subject 4, dilution 4",0
same,Individual recognition score: Salty,"[1]; Subject 4, dilution 4",0
same,Individual recognition score: Sour,"[1]; Subject 4, dilution 4",0
same,Individual recognition score: Sweet,"[1]; Subject 4, dilution 4",6
same,Level of Recognition %: Bitter,"[1]; four subjects, dilution 1",0%
same,Level of Recognition %: Neutral,"[1]; four subjects, dilution 1",12%
same,Level of Recognition %: Salty,"[1]; four subjects, dilution 1",0%
same,Level of Recognition %: Sour,"[1]; four subjects, dilution 1",0%
same,Level of Recognition %: Sweet,"[1]; four subjects, dilution 1",88%
same,Level of Recognition %: Bitter,"[1]; four subjects, dilution 2",0%
same,Level of Recognition %: Neutral,"[1]; four subjects, dilution 2",0%
same,Level of Recognition %: Salty,"[1]; four subjects, dilution 2",0%
same,Level of Recognition %: Sour,"[1]; four subjects, dilution 2",0%
same,Level of Recognition %: Sweet,"[1]; four subjects, dilution 2",100%
same,Level of Recognition %: Bitter,"[1]; four subjects, dilution 3",0%
same,Level of Recognition %: Neutral,"[1]; four subjects, dilution 3",0%
same,Level of Recognition %: Salty,"[1]; four subjects, dilution 3",0%
same,Level of Recognition %: Sour,"[1]; four subjects, dilution 3",0%
same,Level of Recognition %: Sweet,"[1]; four subjects, dilution 3",100%
same,Level of Recognition %: Bitter,"[1]; four subjects, dilution 4",0%
same,Level of Recognition %: Neutral,"[1]; four subjects, dilution 4",0%
same,Level of Recognition %: Salty,"[1]; four subjects, dilution 4",0%
same,Level of Recognition %: Sour,"[1]; four subjects, dilution 4",0%
same,Level of Recognition %: Sweet,"[1]; four subjects, dilution 4",100%
same,hedonic score,[2]; concentration 4 (highest),7.0±2.6
same,detection threshold concentration of the basic taste,[3]; literature (Purves 2005; Robinson 2005),approximately 20 mmol·l^−1
same,detection threshold,[3],6.846 g/L
same,intensity score,[4],8.3±0.9
